In patent US20260158017A1, “KIF18A INHIBITOR” (WIGEN BIOMEDICINE TECHNOLOGY (SHANGHAI) CO., LTD., priority 2021, published 2026):

What follows are compounds tested against T1, Recombinant human KIF18A (1-467His-tagged) protein (Homo sapiens, UniProt Q8NI77) (assay: KIF18A enzyme assay (microtubule-stimulated ATPase activity, ADP-Glo)). Conditions: 30 nM KIF18A, 75 μM ATP, 30 μg/mL pig microtubules; read-out: Inhibitory activity against KIF18A IC50.
T1 construct: Recombinant human KIF18A (1-467His-tagged) protein; His; made in house
T1 sequence (Q8NI77 1-467): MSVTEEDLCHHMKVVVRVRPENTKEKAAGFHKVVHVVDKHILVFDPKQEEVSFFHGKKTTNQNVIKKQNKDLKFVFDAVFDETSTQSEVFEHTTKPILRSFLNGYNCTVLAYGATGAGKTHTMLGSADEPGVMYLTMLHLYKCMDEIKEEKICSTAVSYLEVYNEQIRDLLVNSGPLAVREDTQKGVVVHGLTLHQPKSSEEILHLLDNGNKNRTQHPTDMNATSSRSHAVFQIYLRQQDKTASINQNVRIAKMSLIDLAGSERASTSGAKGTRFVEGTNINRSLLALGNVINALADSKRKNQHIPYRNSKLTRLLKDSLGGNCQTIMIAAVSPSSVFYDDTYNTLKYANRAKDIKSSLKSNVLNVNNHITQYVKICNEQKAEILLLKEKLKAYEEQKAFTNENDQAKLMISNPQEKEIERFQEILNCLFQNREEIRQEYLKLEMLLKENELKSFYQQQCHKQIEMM
T1 sequence (P02550 whole entry partner): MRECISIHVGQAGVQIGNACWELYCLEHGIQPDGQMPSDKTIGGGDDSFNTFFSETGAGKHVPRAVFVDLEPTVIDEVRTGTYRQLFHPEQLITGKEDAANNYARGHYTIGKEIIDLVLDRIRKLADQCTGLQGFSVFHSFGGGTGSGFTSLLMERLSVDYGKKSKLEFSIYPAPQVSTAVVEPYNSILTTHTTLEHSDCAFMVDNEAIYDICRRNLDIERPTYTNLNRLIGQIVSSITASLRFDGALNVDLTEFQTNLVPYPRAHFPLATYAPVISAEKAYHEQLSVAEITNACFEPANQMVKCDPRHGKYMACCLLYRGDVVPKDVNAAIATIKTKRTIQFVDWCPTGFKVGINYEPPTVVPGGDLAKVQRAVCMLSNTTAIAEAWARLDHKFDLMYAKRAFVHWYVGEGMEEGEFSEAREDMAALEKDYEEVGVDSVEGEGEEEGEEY
T1 sequence (P02554 whole entry partner): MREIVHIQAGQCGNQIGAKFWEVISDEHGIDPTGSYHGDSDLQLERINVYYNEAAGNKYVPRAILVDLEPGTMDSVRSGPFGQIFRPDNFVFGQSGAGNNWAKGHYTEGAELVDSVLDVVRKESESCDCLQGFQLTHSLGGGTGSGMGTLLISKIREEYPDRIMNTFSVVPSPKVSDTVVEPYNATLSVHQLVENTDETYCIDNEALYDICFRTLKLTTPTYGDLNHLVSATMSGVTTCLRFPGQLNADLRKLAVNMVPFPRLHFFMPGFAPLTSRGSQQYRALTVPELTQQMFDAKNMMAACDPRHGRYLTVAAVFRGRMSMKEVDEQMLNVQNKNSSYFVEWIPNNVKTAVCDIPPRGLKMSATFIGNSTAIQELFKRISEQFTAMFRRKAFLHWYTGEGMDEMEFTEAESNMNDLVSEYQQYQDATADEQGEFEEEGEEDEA
Type: biochemical
Procedure, shortened: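 Buffer 15 mM Tris pH 7.5, 10 mM MgCl2, 0.01% Pluronic F-68, 1 μM paclitaxel, 30 μg/mL pig microtubules; reactions at room temperature. IC50 from inhibition relative to DMSO.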

| IC50 [nM] | Compound |
| --- | --- |
| 100 to 500 | C[C@@H]1CN(c2nc(C(=O)Nc3ccc(S(=O)(=O)NCCO)cc3N3CCC4(CC3)CC4)ccc2OCF)CCO1 [Compound 562] |
| 100 to 500 | O=C(Nc1ccc(S(=O)(=O)NCCO)cc1N1CCC2(CC1)CC2)c1ccc(OCF)c(N2CCC(F)(F)CC2)n1 [Compound 561] |
| ≤ 100 | O=C(Nc1ccc(OCF)c(OCCC(F)(F)F)c1)c1ccc(NS(=O)(=O)CCO)cc1N1CCC2(CC1)CC2 [Compound 389] |
| ≤ 100 | O=C(Nc1ccc(OCF)c(N2CCOCC2)n1)c1cnc(S(=O)(=O)NCCO)cc1N1CCC2(CC1)CC2 [Compound 508] |
| ≤ 100 | COc1ccc(C(=O)Nc2cnc(S(=O)(=O)NCCO)cc2N2CCC3(CC2)CC3)nc1N1CCO[C@@H](C)C1 [Compound 371] |
| 100 to 500 | O=C(Nc1ccc(S(=O)(=O)NCCO)cc1N1CCC2(CC1)CC2)c1ccc([N+](=O)[O-])c(OCCC(F)(F)F)c1 [Compound 53] |
| ≤ 100 | O=C(Nc1ccc(NS(=O)(=O)CCO)cc1N1CCC2(CC1)CC2)c1ccc(OCF)c(OC2CCC2)c1 [Compound 519] |
| ≤ 100 | C[C@@H]1CN(c2nc(C(=O)Nc3ccc(NS(=O)(=O)[C@H](C)CO)cc3N3CCC4(CC3)CC4)ccc2[N+](=O)[O-])CCO1 [Compound 176] |
| ≤ 100 | O=C(Nc1ccc(OCF)c(N2CCC3(CC3)C2)n1)c1cnc(S(=O)(=O)NCCO)cc1N1CCC2(CC1)CC2 [Compound 502] |
| ≤ 100 | COc1ccc(C(=O)Nc2ccc(S(=O)(=O)NCCO)cc2N2CCC3(CC2)CC3)nc1N1CCC(F)CC1 [Compound 345] |
| ≤ 100 | CC1(F)CCN(c2nc(C(=O)Nc3ccc(NS(=O)(=O)CCO)cc3N3CCC4(CC3)CC4)ccc2OCF)C1 (stereo not shown) [Compound 552] |
| ≤ 100 | COc1ccc(NC(=O)c2cnc(NS(=O)(=O)[C@@H](C)CO)cc2N2CCC3(CC2)CC3)nc1N1CCC(F)(F)CC1 [Compound 301] |
| ≤ 100 | CSc1ccc(NC(=O)c2ccc(NS(=O)(=O)[C@H](C)CO)cc2N2CCC3(CC2)CC3)nc1N1CCO[C@H](C)C1 [Compound 608] |
| ≤ 100 | C[C@@H]1CN(c2nc(NC(=O)c3cnc(NS(=O)(=O)[C@@H](C)CO)cc3N3CCC4(CC3)CC4)ccc2[N+](=O)[O-])CCO1 [Compound 143] |
| ≤ 100 | C[C@@H]1CN(c2cc(C(=O)Nc3cnc(NS(=O)(=O)[C@H](C)CO)cc3N3CCC4(CC3)CC4)ccc2[N+](=O)[O-])CCO1 [Compound 208] |
| ≤ 100 | O=C(Nc1ccc(OCF)c(N2CCC(F)(F)CC2)n1)c1ccc(S(=O)(=O)NCCO)cc1N1CCC2(CC1)CC2 [Compound 433] |
| 100 to 500 | C[C@@H]1CN(c2cc(C(=O)Nc3cnc(S(=O)(=O)NCCO)cc3N3CCC4(CC3)CC4)ccc2[N+](=O)[O-])CCO1 [Compound 210] |
| 100 to 500 | O=C(Nc1ccc(S(=O)(=O)NCCO)cc1N1CCC2(CC1)CC2)c1ccc([N+](=O)[O-])c(N2CC(F)(F)C2)n1 [Compound 180] |
| 100 to 500 | O=C(Nc1cnc(S(=O)(=O)NCCO)cc1N1CCC2(CC1)CC2)c1ccc([N+](=O)[O-])c(N2CC3CC3C2)c1 (stereo not shown) [Compound 218] |
| 100 to 500 | O=C(Nc1ccc(S(=O)(=O)NCCO)cc1N1CCC2(CC1)CC2)c1ccc([N+](=O)[O-])c(N2CCC(F)(F)CC2)n1 [Compound 177] |
| 100 to 500 | O=C(Nc1ccc(S(=O)(=O)NCCO)cc1N1CCC2(CC1)CC2)c1ccc(OCF)c(N2CCC(F)CC2)n1 [Compound 569] |
| ≤ 100 | C[C@H](CO)NS(=O)(=O)c1cc(N2CCC3(CC2)CC3)c(C(=O)Nc2ccc([N+](=O)[O-])c(N3CCO[C@H](C)C3)n2)cn1 [Compound 160] |
| ≤ 100 | C[C@@H]1CN(c2cc(NC(=O)c3ccc(NS(=O)(=O)[C@@H](C)CO)cc3N3CCC4(CC3)CC4)ccc2OCF)CCO1 [Compound 399] |

| IC50 [nM] | Compound |
| --- | --- |
| ≤ 100 | COc1ccc(C(=O)Nc2cnc(NS(=O)(=O)CCO)cc2N2CCC3(CC2)CC3)nc1N1CCC2(CC2)C1 [Compound 358] |
| ≤ 100 | C[C@@H](CO)S(=O)(=O)Nc1ccc(C(=O)Nc2ccc(OCF)c(N3CCC(F)(F)CC3)c2)c(N2CCC3(CC2)CC3)c1 [Compound 413] |
| 100 to 500 | O=C(Nc1cnc(S(=O)(=O)NCCO)cc1N1CCC2(CC1)CC2)c1ccc([N+](=O)[O-])c(N2CCC(F)(F)CC2)n1 [Compound 241] |
| 100 to 500 | C[C@H]1CN(c2cc(C(=O)Nc3ccc(NS(=O)(=O)CCO)cc3N3CCC4(CC3)CC4)ccc2[N+](=O)[O-])CCO1 [Compound 35] |
| ≤ 100 | CSc1ccc(NC(=O)c2cnc(NS(=O)(=O)CCO)cc2N2CCC3(CC2)CC3)nc1NC(C)(C)CO [Compound 635] |
| ≤ 100 | COc1ccc(NC(=O)c2cnc(S(=O)(=O)NCCO)cc2N2CCC3(CC2)CC3)nc1N1CCOCC1 [Compound 316] |
| ≤ 100 | CSc1ccc(NC(=O)c2cnc(NS(=O)(=O)[C@@H](C)CO)cc2N2CCC3(CC2)CC3)cc1N1CCO[C@H](C)C1 [Compound 623] |
| ≤ 100 | COc1ccc(C(=O)Nc2ccc(NS(=O)(=O)[C@H](C)CO)cc2N2CCC3(CC2)CC3)nc1N1CCC(F)(F)CC1 [Compound 334] |
| ≤ 100 | CC(C)(CO)Nc1cc(NC(=O)c2cnc(NS(=O)(=O)CCO)cc2N2CCC3(CC2)CC3)ccc1[N+](=O)[O-] [Compound 107] |
| 100 to 500 | C[C@H](CO)NS(=O)(=O)c1ccc(NC(=O)c2ccc([N+](=O)[O-])c(N3CCC(F)(F)CC3)c2)c(N2CCC3(CC2)CC3)c1 [Compound 62] |
| ≤ 100 | C[C@H]1CN(c2nc(NC(=O)c3cnc(NS(=O)(=O)CCO)cc3N3CCC4(CC3)CC4)ccc2OCF)CCO1 [Compound 483] |
| ≤ 100 | CSc1ccc(NC(=O)c2cnc(NS(=O)(=O)[C@H](C)CO)cc2N2CCC3(CC2)CC3)nc1N1CCC(F)(F)CC1 [Compound 638] |
| ≤ 100 | COc1ccc(NC(=O)c2ccc(S(=O)(=O)NCCO)cc2N2CCC3(CC2)CC3)nc1NC(C)(C)CO [Compound 283] |
| ≤ 100 | O=C(Nc1ccc(OCF)c(N2CCC3(CC3)C2)n1)c1ccc(S(=O)(=O)NCCO)cc1N1CCC2(CC1)CC2 [Compound 438] |
| ≤ 100 | COc1ccc(C(=O)Nc2ccc(S(=O)(=O)NCCO)cc2N2CCC3(CC2)CC3)nc1N1CCC(C)(F)C1 (stereo not shown) [Compound 344] |
| ≤ 100 | O=C(Nc1cnc(NS(=O)(=O)CCO)cc1N1CCC2(CC1)CC2)c1ccc([N+](=O)[O-])c(N2CCC(F)(F)CC2)c1 [Compound 193] |
| ≤ 100 | C[C@H](CO)S(=O)(=O)Nc1cc(N2CCC3(CC2)CC3)c(C(=O)Nc2ccc(OCF)c(N3CCC(F)(F)CC3)c2)cn1 [Compound 462] |
| ≤ 100 | CC(C)(CO)Nc1cc(C(=O)Nc2cnc(NS(=O)(=O)CCO)cc2N2CCC3(CC2)CC3)ccc1[N+](=O)[O-] [Compound 203] |
| ≤ 100 | O=C(Nc1ccc(OCF)c(N2CC(F)(F)C2)n1)c1ccc(S(=O)(=O)NCCO)cc1N1CCC2(CC1)CC2 [Compound 436] |
| ≤ 100 | O=C(Nc1ccc(OCF)c(N2CCC3(CC3)C2)c1)c1ccc(NS(=O)(=O)CCO)cc1N1CCC2(CC1)CC2 [Compound 390] |
| ≤ 100 | CC(C)(CO)Nc1nc(NC(=O)c2ccc(S(=O)(=O)NCCO)cc2N2CCC3(CC2)CC3)ccc1[N+](=O)[O-] [Compound 91] |
| ≤ 100 | C[C@H]1CN(c2nc(NC(=O)c3cnc(S(=O)(=O)NCCO)cc3N3CCC4(CC3)CC4)ccc2OCF)CCO1 [Compound 499] |
| ≤ 100 | CC1(F)CCN(c2nc(NC(=O)c3cnc(S(=O)(=O)NCCO)cc3N3CCC4(CC3)CC4)ccc2OCF)C1 (stereo not shown) [Compound 504] |
